Test results from ChEMBL document CHEMBL1201862, “PubChem BioAssay data set” (2004).
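In this assay, cells in 96-well plates receive the compound at five concentrations for 48 hours. Endpoints are linearly interpolated between the surrounding concentrations. GI50 = concentration required for 50% inhibition of growth.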 Activity calls are given as the source filed them. No stated cut-off is given here; in the data, active = GI50 up to about 1.1 µM and inactive = higher.

Columns and labels:
Experiment in all cases: NCI-60 cell line screen, 48 h
SF-268 = system: SF-268
HT-29 = system: HT-29
UO-31 = system: UO-31
RPMI-8226 = system: RPMI-8226
NCI-H460 = system: NCI-H460
SK-OV-3 = system: SK-OV-3
OVCAR-5 = system: OVCAR-5
MOLT-4 = system: MOLT-4
SK-MEL-5 = system: SK-MEL-5
M14 = system: M14
NCI-H522 = system: NCI-H522
SN12C = system: SN12C
SF-295 = system: SF-295
SNB-75 = system: SNB-75
CAKI-1 = system: CAKI-1
IGROV-1 = system: IGROV-1
MDA-MB-435 = system: MDA-MB-435
UACC-62 = system: UACC-62
LOX IMVI = system: LOX IMVI
KM12 = system: KM12
HL-60 = system: HL-60
K562 = system: K562
SF-539 = system: SF-539
HCT-15 = system: HCT-15
SNB-19 = system: SNB-19
PC-3 = system: PC-3
EKVX = system: EKVX
DU-145 = system: DU-145
OVCAR-8 = system: OVCAR-8
OVCAR-3 = system: OVCAR-3
NCI-H226 = system: NCI-H226
HCC 2998 = system: HCC 2998
SK-MEL-28 = system: SK-MEL-28
U-251 = system: U-251
HCT-116 = system: HCT-116
COLO 205 = system: COLO 205
MCF7 = system: MCF7
SW-620 = system: SW-620
Malme-3M = system: Malme-3M
SK-MEL-2 = system: SK-MEL-2
ACHN = system: ACHN
NCI/ADR-RES = system: NCI/ADR-RES
CCRF-CEM = system: CCRF-CEM
NCI-H23 = system: NCI-H23
MDA-N = system: MDA-N
TK-10 = system: TK-10
786-0 = system: 786-0
MDA-MB-231 = system: MDA-MB-231
HOP-62 = system: HOP-62
HOP-92 = system: HOP-92
T47D = system: T47D
Hs-578T = system: Hs-578T
A549 = system: A549
BT-549 = system: BT-549
OVCAR-4 = system: OVCAR-4
RXF 393 = system: RXF 393
UACC-257 = system: UACC-257
A498 = system: A498

Q: Which GI50 (SF-268) does the source give for `NC(=O)CN1CCN(c2nc(N3CCCC3)c3nc(Cl)c(NCc4ccccc4)nc3n2)CC1` here?
A: 8.63 µM (inactive)

Q: And the GI50 (HT-29)?
A: 9.48 µM (inactive)

Q: What about the GI50 (UO-31) of the same compound?
A: 10.7 µM (inactive)

Q: And the GI50 (RPMI-8226)?
A: 9.89 µM (inactive)

Q: And the GI50 (NCI-H460)?
A: 9.12 µM (inactive)

Q: And the GI50 (SK-OV-3)?
A: 9.91 µM (inactive)

Q: And the GI50 (OVCAR-5)?
A: 10.1 µM (inactive)

Q: And the GI50 (MOLT-4)?
A: 7.26 µM (inactive)

Q: What about the GI50 (SK-MEL-5) of the same compound?
A: 8.45 µM (inactive)

Q: What about the GI50 (M14) of the same compound?
A: 9.91 µM (inactive)

Q: What about the GI50 (NCI-H522) of the same compound?
A: 10.4 µM (inactive)

Q: What about the GI50 (SN12C) of the same compound?
A: 9.48 µM (inactive)

Q: What about the GI50 (SF-295) of the same compound?
A: 8.89 µM (inactive)

Q: What about the GI50 (SNB-75) of the same compound?
A: 10.7 µM (inactive)

Q: What about the GI50 (CAKI-1) of the same compound?
A: 17 µM (inactive)

Q: What about the GI50 (IGROV-1) of the same compound?
A: 12.2 µM (inactive)

Q: What about the GI50 (MDA-MB-435) of the same compound?
A: 10 µM (inactive)

Q: And the GI50 (UACC-62)?
A: 9.2 µM (inactive)

Q: And the GI50 (LOX IMVI)?
A: 9.33 µM (inactive)

Q: And the GI50 (KM12)?
A: 10.6 µM (inactive)

Q: And the GI50 (HL-60)?
A: 8.77 µM (inactive)

Q: What about the GI50 (K562) of the same compound?
A: 9.86 µM (inactive)

Q: What about the GI50 (SF-539) of the same compound?
A: 9.06 µM (inactive)

Q: What about the GI50 (HCT-15) of the same compound?
A: 8.67 µM

Q: What about the GI50 (SNB-19) of the same compound?
A: 9.89 µM (inactive)

Q: And the GI50 (PC-3)?
A: 11.8 µM (inactive)

Q: And the GI50 (EKVX)?
A: 11.8 µM (inactive)

Q: And the GI50 (DU-145)?
A: 11.5 µM (inactive)

Q: And the GI50 (OVCAR-8)?
A: 15 µM (inactive)

Q: And the GI50 (OVCAR-3)?
A: 8.39 µM (inactive)

Q: And the GI50 (NCI-H226)?
A: 11.8 µM (inactive)

Q: What about the GI50 (HCC 2998) of the same compound?
A: 8.38 µM (inactive)

Q: What about the GI50 (SK-MEL-28) of the same compound?
A: 9.46 µM (inactive)

Q: What about the GI50 (U-251) of the same compound?
A: 8.59 µM (inactive)

Q: What about the GI50 (HCT-116) of the same compound?
A: 8 µM (inactive)

Q: What about the GI50 (COLO 205) of the same compound?
A: 8.75 µM (inactive)

Q: What about the GI50 (MCF7) of the same compound?
A: 8.87 µM (inactive)

Q: And the GI50 (SW-620)?
A: 11.5 µM (inactive)

Q: And the GI50 (Malme-3M)?
A: 8.65 µM (inactive)

Q: What about the GI50 (SK-MEL-2) of the same compound?
A: 9.66 µM (inactive)

Q: And the GI50 (ACHN)?
A: 12.4 µM (inactive)

Q: What about the GI50 (NCI/ADR-RES) of the same compound?
A: 14 µM (inactive)

Q: And the GI50 (CCRF-CEM)?
A: 13.8 µM (inactive)

Q: What about the GI50 (NCI-H23) of the same compound?
A: 13.7 µM (inactive)

Q: What about the GI50 (MDA-N) of the same compound?
A: 8.67 µM (inactive)

Q: And the GI50 (TK-10)?
A: 14.2 µM (inactive)

Q: And the GI50 (786-0)?
A: 8.89 µM (inactive)

Q: And the GI50 (MDA-MB-231)?
A: 10.8 µM (inactive)

Q: What about the GI50 (HOP-62) of the same compound?
A: 0.525 µM (active)

Q: What about the GI50 (HOP-92) of the same compound?
A: 8.36 µM (inactive)

Q: What about the GI50 (T47D) of the same compound?
A: 7.89 µM (inactive)

Q: What about the GI50 (Hs-578T) of the same compound?
A: 9.66 µM (inactive)

Q: And the GI50 (A549)?
A: 12.9 µM (inactive)

Q: And the GI50 (BT-549)?
A: 10 µM (inactive)

Q: What about the GI50 (OVCAR-4) of the same compound?
A: 16 µM (inactive)

Q: What about the GI50 (RXF 393) of the same compound?
A: 7.96 µM (inactive)

Q: What about the GI50 (UACC-257) of the same compound?
A: 9.98 µM (inactive)

Q: How did the GI50 (SF-268) turn out when `COc1ccc(/C=N/n2c(C)n[nH]c2=O)c(OC)c1` was run?
A: > 100 µM (inactive)

Q: What about the GI50 (HT-29) of the same compound?
A: > 100 µM (inactive)

Q: And the GI50 (UO-31)?
A: > 100 µM (inactive)

Q: What about the GI50 (RPMI-8226) of the same compound?
A: > 100 µM (inactive)

Q: And the GI50 (NCI-H460)?
A: > 100 µM (inactive)

Q: What about the GI50 (SK-OV-3) of the same compound?
A: > 100 µM (inactive)

Q: What about the GI50 (OVCAR-5) of the same compound?
A: > 100 µM (inactive)

Q: What about the GI50 (MOLT-4) of the same compound?
A: 85.1 µM (inactive)

Q: What about the GI50 (M14) of the same compound?
A: > 100 µM (inactive)

Q: And the GI50 (SN12C)?
A: > 100 µM (inactive)

Q: What about the GI50 (SF-295) of the same compound?
A: > 100 µM (inactive)

Q: And the GI50 (SNB-75)?
A: > 100 µM (inactive)

Q: What about the GI50 (CAKI-1) of the same compound?
A: > 100 µM (inactive)

Q: And the GI50 (MDA-MB-435)?
A: 90.4 µM (inactive)

Q: What about the GI50 (UACC-62) of the same compound?
A: 35.2 µM (inactive)

Q: What about the GI50 (KM12) of the same compound?
A: > 100 µM (inactive)

Q: And the GI50 (K562)?
A: > 100 µM (inactive)

Q: And the GI50 (SF-539)?
A: > 100 µM (inactive)

Q: What about the GI50 (HCT-15) of the same compound?
A: > 100 µM

Q: And the GI50 (SNB-19)?
A: > 100 µM (inactive)

Q: And the GI50 (PC-3)?
A: > 100 µM (inactive)

Q: And the GI50 (EKVX)?
A: 83 µM (inactive)

Q: What about the GI50 (DU-145) of the same compound?
A: 71.6 µM (inactive)

Q: And the GI50 (OVCAR-8)?
A: > 100 µM (inactive)

Q: And the GI50 (OVCAR-3)?
A: > 100 µM (inactive)

Q: What about the GI50 (NCI-H226) of the same compound?
A: > 100 µM (inactive)

Q: And the GI50 (HCC 2998)?
A: > 100 µM (inactive)

Q: And the GI50 (SK-MEL-28)?
A: > 100 µM (inactive)

Q: What about the GI50 (U-251) of the same compound?
A: > 100 µM (inactive)

Q: What about the GI50 (HCT-116) of the same compound?
A: > 100 µM (inactive)

Q: And the GI50 (COLO 205)?
A: > 100 µM (inactive)

Q: What about the GI50 (MCF7) of the same compound?
A: > 100 µM (inactive)

Q: And the GI50 (SW-620)?
A: > 100 µM (inactive)

Q: And the GI50 (Malme-3M)?
A: > 100 µM (inactive)

Q: What about the GI50 (SK-MEL-2) of the same compound?
A: > 100 µM (inactive)

Q: What about the GI50 (ACHN) of the same compound?
A: > 100 µM (inactive)

Q: What about the GI50 (NCI/ADR-RES) of the same compound?
A: > 100 µM (inactive)

Q: And the GI50 (CCRF-CEM)?
A: > 100 µM (inactive)

Q: And the GI50 (NCI-H23)?
A: > 100 µM (inactive)

Q: What about the GI50 (MDA-N) of the same compound?
A: > 100 µM (inactive)

Q: What about the GI50 (786-0) of the same compound?
A: > 100 µM (inactive)

Q: And the GI50 (MDA-MB-231)?
A: > 100 µM (inactive)

Q: What about the GI50 (HOP-62) of the same compound?
A: > 100 µM (inactive)

Q: What about the GI50 (T47D) of the same compound?
A: > 100 µM (inactive)

Q: What about the GI50 (Hs-578T) of the same compound?
A: 3.08 µM (inactive)

Q: And the GI50 (A549)?
A: > 100 µM (inactive)

Q: And the GI50 (BT-549)?
A: > 100 µM (inactive)

Q: What about the GI50 (OVCAR-4) of the same compound?
A: > 100 µM (inactive)

Q: And the GI50 (UACC-257)?
A: > 100 µM (inactive)

Q: And the GI50 (A498)?
A: 57.9 µM (inactive)
